These results are taken from patent US20080312255A1 (ASTRAZENECA AB, priority 2007, published 2008).

Sequence of S. aureus GyrB ATPase (P0AES4 whole entry): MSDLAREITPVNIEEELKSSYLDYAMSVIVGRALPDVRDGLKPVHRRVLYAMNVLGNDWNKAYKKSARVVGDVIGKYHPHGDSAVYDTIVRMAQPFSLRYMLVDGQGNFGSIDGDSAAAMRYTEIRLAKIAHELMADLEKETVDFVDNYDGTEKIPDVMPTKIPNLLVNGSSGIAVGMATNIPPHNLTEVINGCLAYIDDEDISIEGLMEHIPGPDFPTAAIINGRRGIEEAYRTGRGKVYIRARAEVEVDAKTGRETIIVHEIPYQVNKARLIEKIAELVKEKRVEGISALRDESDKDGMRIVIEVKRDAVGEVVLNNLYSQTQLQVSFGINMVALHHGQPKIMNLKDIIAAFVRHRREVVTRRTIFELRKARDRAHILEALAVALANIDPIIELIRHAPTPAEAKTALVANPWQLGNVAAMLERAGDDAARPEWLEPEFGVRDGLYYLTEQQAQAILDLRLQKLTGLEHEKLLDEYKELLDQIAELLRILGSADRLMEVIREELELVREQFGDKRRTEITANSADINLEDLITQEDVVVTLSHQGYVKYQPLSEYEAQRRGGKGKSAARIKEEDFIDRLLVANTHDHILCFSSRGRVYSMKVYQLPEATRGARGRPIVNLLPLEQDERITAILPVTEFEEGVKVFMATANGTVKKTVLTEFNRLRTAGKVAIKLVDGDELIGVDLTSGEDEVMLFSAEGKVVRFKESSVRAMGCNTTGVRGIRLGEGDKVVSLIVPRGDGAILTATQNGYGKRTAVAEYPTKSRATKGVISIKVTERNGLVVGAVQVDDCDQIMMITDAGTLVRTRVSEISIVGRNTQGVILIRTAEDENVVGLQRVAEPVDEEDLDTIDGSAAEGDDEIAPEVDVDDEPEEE
Sequence of S. aureus GyrB ATPase (P0A0K8 whole entry): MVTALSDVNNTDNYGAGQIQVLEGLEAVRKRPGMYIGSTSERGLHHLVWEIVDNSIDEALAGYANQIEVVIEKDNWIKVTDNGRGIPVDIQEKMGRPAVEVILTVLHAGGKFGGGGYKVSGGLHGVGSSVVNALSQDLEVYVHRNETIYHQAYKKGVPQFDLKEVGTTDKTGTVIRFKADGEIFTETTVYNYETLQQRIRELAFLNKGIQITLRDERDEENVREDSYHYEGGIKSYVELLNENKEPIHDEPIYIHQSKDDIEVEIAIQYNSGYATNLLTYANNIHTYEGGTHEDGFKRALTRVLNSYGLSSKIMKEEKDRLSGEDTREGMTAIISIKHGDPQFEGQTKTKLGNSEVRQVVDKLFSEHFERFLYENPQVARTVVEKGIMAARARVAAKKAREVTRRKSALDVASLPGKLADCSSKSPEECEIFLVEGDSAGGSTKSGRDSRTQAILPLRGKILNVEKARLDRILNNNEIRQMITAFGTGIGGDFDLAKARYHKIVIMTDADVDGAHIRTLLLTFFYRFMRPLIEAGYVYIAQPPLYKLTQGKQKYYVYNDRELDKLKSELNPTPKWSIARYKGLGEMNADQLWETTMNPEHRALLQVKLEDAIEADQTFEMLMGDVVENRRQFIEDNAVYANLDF

This assay has as its target S. aureus GyrB ATPase (Staphylococcus aureus, UniProt P0A0K8). The experiment in a line: S. aureus GyrB ATPase inhibition (ammonium molybdate/malachite green phosphate detection). The class given is biochemical. The conditions noted are these: compound concentration of 1 μM. The method in brief:
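E. coli GyrA and S. aureus GyrB (250 pM each) with sheared salmon sperm DNA and 250 μM ATP, pH 7.5 Hepes buffer. Released phosphate detected by malachite green/ammonium molybdate at 650 nm; percent inhibition at 1 μM compound unless noted, normalized to 2% DMSO (0%) and EDTA (100%) controls.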
As to `COCn1ccnc1-c1nc(N2CC[C@@H](NC(=O)c3[nH]c(C)c(Cl)c3Cl)[C@@H](F)C2)sc1C(=O)OC` [Example 59], the inhibition (in general, the relative decrease from the control value, in per cent) at 1 µM came to 100%. As to `CNc1nc(-c2nc(N3CC[C@@H](NC(=O)c4[nH]c(C)c(Cl)c4Cl)[C@@H](OC)C3)sc2C(=O)O)cs1` [Example 34, 2-((3S,4R)-4-{[(3,4-Dichloro-5-methyl-1H-pyrrol-2-yl)carbonyl]amino}-3-methoxypiperidin-1-yl)-2′-(methylamino)-4,4′-bi-1,3-thiazole-5-carboxylic acid], the inhibition at 1 µM stood at 99.6%. Consider `CCOC(=O)c1sc(N2CC[C@@H](NC(=O)c3[nH]c(C)c(Cl)c3Cl)[C@@H](OC)C2)nc1-c1ncccn1` [Example 43, Ethyl 2-((3S,4R)-4-{[(3,4-dichloro-5-methyl-1H-pyrrol-2-yl)carbonyl]amino}-3-methoxypiperidin-1-yl)-4-pyrimidin-2-yl-1,3-thiazole-5-carboxylate], for which the inhibition at 1 µM amounted to 102%.

As to `COC(=O)c1sc(N2CC[C@@H](NC(=O)c3[nH]c(C)c(Cl)c3Cl)[C@@H](OC)C2)nc1-c1ccno1` [Example 60], the inhibition at 1 µM came out at 104%.

Take `CCCO[C@H]1CN(c2nc(-c3ncnn3C)c(C(=O)O)s2)CC[C@H]1NC(=O)c1[nH]c(C)c(Cl)c1Cl` [Example 159, 2-[(3S,4R)-4-{[(3,4-dichloro-5-methyl-1H-pyrrol-2-yl)carbonyl]amino}-3-propoxypiperidin-1-yl]-4-(1-methyl-1H-1,2,4-triazol-5-yl)-1,3-thiazole-5-carboxylic acid]: the inhibition at 1 µM amounted to 31%. Next, `COC(=O)c1sc(N2CC[C@@H](NC(=O)c3[nH]c(C)c(Cl)c3Cl)[C@@H](F)C2)nc1-c1ccn[nH]1` [Example 63]: 99.8%; `CO[C@H]1CN(c2nc(-c3nc(C)c(C)n3C)c(C(=O)O)s2)CC[C@H]1NC(=O)c1[nH]c(C)c(Cl)c1Cl` [Example 32, 2-((3S,4R)-4-{[(3,4-Dichloro-5-methyl-1H-pyrrol-2-yl)carbonyl]amino}-3-methoxypiperidin-1-yl)-4-(1,4,5-trimethyl-1H-imidazol-2-yl)-1,3-thiazole-5-carboxylic acid]: 99.9%; `COC(=O)c1sc(N2CC[C@@H](NC(=O)c3[nH]c(C)c(Cl)c3Cl)[C@@H](F)C2)nc1-c1cccc(OC)n1` [Example 100, methyl 2-((3S,4R)-4-(3,4-dichloro-5-methyl-1H-pyrrole-2-carboxamido)-3-fluoropiperidin-1-yl)-4-(6-methoxypyridin-2-yl)thiazole-5-carboxylate]: 112%. On to `CO[C@H]1CN(c2nc(-c3ncccn3)c(C(=O)O)s2)CC[C@H]1NC(=O)c1[nH]c(C)c(Cl)c1C#N` [Example 122, 2-((3S,4R)-4-(4-chloro-3-cyano-5-methyl-1H-pyrrole-2-carboxamido)-3-methoxypiperidin-1-yl)-4-(pyrimidin-2-yl)thiazole-5-carboxylic acid], for which the inhibition at 1 µM was determined as 103%. Next, `COC(=O)c1sc(N2CC[C@@H](NC(=O)c3[nH]c(C)c(Cl)c3Cl)[C@@H](OC)C2)nc1-c1csc(N)n1` [Example 71]: 101%. With `Cc1[nH]c(C(=O)N[C@@H]2CCN(c3nc(-c4nccs4)c(C(=O)O)s3)C[C@@H]2F)c(Cl)c1Cl` [Example 6, 2′-((3S,4R)-4-{[(3,4-Dichloro-5-methyl-1H-pyrrol-2-yl)carbonyl]amino}-3-fluoropiperidin-1-yl)-2,4′-bi-1,3-thiazole-5′-carboxylic acid], the inhibition at 1 µM turned out to be 99.9%. Take `COC(=O)c1sc(N2CC[C@@H](NC(=O)c3[nH]c(C)c(Cl)c3Cl)[C@@H](F)C2)nc1-c1ncc[nH]1` [Example 87]: the inhibition at 1 µM came out at 71%. Turning to `CCOC(=O)c1sc(N2CC[C@@H](NC(=O)c3[nH]c(C)c(Cl)c3Cl)[C@@H](OC)C2)nc1-c1nnco1` [Example 83], the inhibition at 1 µM was determined as 102%. With `COC(=O)c1sc(N2CC[C@@H](NC(=O)c3[nH]c(C)c(Cl)c3Cl)[C@@H](OC)C2)nc1-c1nccs1` [Example 44], the inhibition at 1 µM was 99.6%. Next, `COC(=O)c1sc(N2CC[C@@H](NC(=O)c3[nH]c(C)c(Cl)c3Cl)[C@@H](OC)C2)nc1-c1ncc(C)nc1C` [Example 93, methyl 2-((3S,4R)-4-(3,4-dichloro-5-methyl-1H-pyrrole-2-carboxamido)-3-methoxypiperidin-1-yl)-4-(3,5-dimethylpyrazin-2-yl)thiazole-5-carboxylate]: 99.3%; `Cc1[nH]c(C(=O)N[C@@H]2CCN(c3nc(-c4csc(N(C)C)n4)c(C(=O)O)s3)C[C@@H]2F)c(Cl)c1Cl` [Example 38, 2-((3S,4R)-4-{[(3,4-Dichloro-5-methyl-1H-pyrrol-2-yl)carbonyl]amino}-3-fluoropiperidin-1-yl)-2′-(dimethylamino)-4,4′-bi-1,3-thiazole-5-carboxylic acid]: 97.3%.

`COCCn1ccnc1-c1nc(N2CC[C@@H](NC(=O)c3[nH]c(C)c(Cl)c3Cl)[C@@H](OC)C2)sc1C(=O)OC` [Example 64]: the inhibition at 1 µM is 96.2%. Regarding `Cc1[nH]c(C(=O)N[C@@H]2CCN(c3nc(-c4ccncn4)c(C(=O)O)s3)C[C@@H]2F)c(Cl)c1Cl` [Example 5, 2-((3S,4R)-4-{[(3,4-Dichloro-5-methyl-1H-pyrrol-2-yl)carbonyl]amino}-3-fluoropiperidin-1-yl)-4-pyrimidin-4-yl-1,3-thiazole-5-carboxylic acid], the inhibition at 1 µM stood at 99.4%. With `CO[C@H]1CN(c2nc(-c3ncnn3C)c(C(=O)O)s2)CC[C@H]1NC(=O)c1[nH]c(C)c(C#N)c1Cl` [Example 29, 2-((3S,4R)-4-{[(3-Chloro-4-cyano-5-methyl-1H-pyrrol-2-yl)carbonyl]amino}-3-methoxypiperidin-1-yl)-4-(1-methyl-1H-1,2,4-triazol-5-yl)-1,3-thiazole-5-carboxylic acid] the figure was 101%; with `Cc1[nH]c(C(=O)N[C@@H]2CCN(c3nc(-c4nc5ccccc5s4)c(C(=O)O)s3)C[C@@H]2F)c(Cl)c1Cl` [Example 15, 4-(1,3-Benzothiazol-2-yl)-2-((3S,4R)-4-{[(3,4-dichloro-5-methyl-1H-pyrrol-2-yl)carbonyl]amino}-3-fluoropiperidin-1-yl)-1,3-thiazole-5-carboxylic acid], 101%. As for `CO[C@H]1CN(c2nc(-c3cnccn3)c(C(=O)O)s2)CC[C@H]1NC(=O)c1[nH]c(C)c(Cl)c1Cl` [Example 12, 2-((3S,4R)-4-{[(3,4-Dichloro-5-methyl-1H-pyrrol-2-yl)carbonyl]amino}-3-methoxypiperidin-1-yl)-4-pyrazin-2-yl-1,3-thiazole-5-carboxylic acid], the inhibition at 1 µM worked out at 105%. For `CCOC(=O)c1sc(N2CC[C@@H](NC(=O)c3[nH]c(C)c(Cl)c3Cl)[C@@H](F)C2)nc1-c1ccccn1` [Example 49], the inhibition at 1 µM turned out to be 112%. With `CO[C@H]1CN(c2nc(-c3ncccc3F)c(C(=O)O)s2)CC[C@H]1NC(=O)c1[nH]c(C)c(Cl)c1Cl` [Example 114, 2-((3S,4R)-4-(3,4-dichloro-5-methyl-1H-pyrrole-2-carboxamido)-3-methoxypiperidin-1-yl)-4-(3-fluoropyridin-2-yl)thiazole-5-carboxylic acid] the figure was 82.9%; with `COc1cccc(-c2nc(N3CC[C@@H](NC(=O)c4[nH]c(C)c(Cl)c4Cl)[C@@H](F)C3)sc2C(=O)O)n1` [Example 117, 2-((3S,4R)-4-(3,4-dichloro-5-methyl-1H-pyrrole-2-carboxamido)-3-fluoropiperidin-1-yl)-4-(6-methoxypyridin-2-yl)thiazole-5-carboxylic acid], 108%; with `COCCn1ccnc1-c1nc(N2CC[C@@H](NC(=O)c3[nH]c(C)c(C#N)c3Cl)[C@@H](OC)C2)sc1C(=O)O` [Example 30, 2-((3S,4R)-4-{[(3-Chloro-4-cyano-5-methyl-1H-pyrrol-2-yl)carbonyl]amino}-3-methoxypiperidin-1-yl)-4-[1-(2-methoxyethyl)-1H-imidazol-2-yl]-1,3-thiazole-5-carboxylic acid], 102%. With `Cc1[nH]c(C(=O)N[C@@H]2CCN(c3nc(-c4ncnn4C)c(C(=O)O)s3)C[C@@H]2OCc2ccccc2)cc1Cl` [Example 146, 2-[(3S,4R)-3-(benzyloxy)-4-{[(4-chloro-5-methyl-1H-pyrrol-2-yl)carbonyl]amino}piperidin-1-yl]-4-(1-methyl-1H-1,2,4-triazol-5-yl)-1,3-thiazole-5-carboxylic acid] the figure was 116%; with `CNc1nc(-c2nc(N3CC[C@@H](NC(=O)c4[nH]c(C)c(Cl)c4Cl)[C@@H](F)C3)sc2C(=O)O)cs1` [Example 37, 2-((3S,4R)-4-{[(3,4-Dichloro-5-methyl-1H-pyrrol-2-yl)carbonyl]amino}-3-fluoropiperidin-1-yl)-2′-(methylamino)-4,4′-bi-1,3-thiazole-5-carboxylic acid], 101%. As for `CCOC(=O)c1sc(N2CC[C@@H](NC(=O)c3[nH]c(C)c(Cl)c3Cl)[C@@H](OC)C2)nc1-c1ccccn1` [Example 48], the inhibition at 1 µM came out at 100%.

For the compound `CO[C@H]1CN(c2nc(-c3ncccn3)c(C(=O)O)s2)CC[C@H]1NC(=O)c1[nH]c(C)c(Cl)c1Cl` [Example 1, 2-((3S,4R)-4-{[(3,4-Dichloro-5-methyl-1H-pyrrol-2-yl)carbonyl]amino}-3-methoxypiperidin-1-yl)-4-pyrimidin-2-yl-1,3-thiazole-5-carboxylic acid], the inhibition at 1 µM was 99.2%.

On to `Cc1[nH]c(C(=O)N[C@@H]2CCN(c3nc(-c4ccn[nH]4)c(C(=O)O)s3)C[C@@H]2F)c(Cl)c1Cl` [Example 24, 2-((3S,4R)-4-{[(3,4-Dichloro-5-methyl-1H-pyrrol-2-yl)carbonyl]amino}-3-fluoropiperidin-1-yl)-4-(1H-pyrazol-5-yl)-1,3-thiazole-5-carboxylic acid], for which the inhibition at 1 µM was determined as 65.9%.
